pIC50: −log10 of the molar value. “Also recorded” adds a separate entry of the source.
What was measured:
Ras = test: [α-32P]-GTP binding to small G protein Ras; settings: data not shown
Description: (§1) Competition of these drugs with GTP for the active site of 4 small G proteins (Rab3A, Ras, Arf2, RalA) was also tested.

dynamin II = molecular target: T1, dynamin II (Rattus norvegicus, UniProt P39052); test: Dynamin II GTPase assay ([γ-32P]GTP hydrolysis); assay type: biochemical; settings: GTPase activity, FIG. 1e
T1 construct: made in house; host or cells: insect cells
T1 sequence (P39052 1-870): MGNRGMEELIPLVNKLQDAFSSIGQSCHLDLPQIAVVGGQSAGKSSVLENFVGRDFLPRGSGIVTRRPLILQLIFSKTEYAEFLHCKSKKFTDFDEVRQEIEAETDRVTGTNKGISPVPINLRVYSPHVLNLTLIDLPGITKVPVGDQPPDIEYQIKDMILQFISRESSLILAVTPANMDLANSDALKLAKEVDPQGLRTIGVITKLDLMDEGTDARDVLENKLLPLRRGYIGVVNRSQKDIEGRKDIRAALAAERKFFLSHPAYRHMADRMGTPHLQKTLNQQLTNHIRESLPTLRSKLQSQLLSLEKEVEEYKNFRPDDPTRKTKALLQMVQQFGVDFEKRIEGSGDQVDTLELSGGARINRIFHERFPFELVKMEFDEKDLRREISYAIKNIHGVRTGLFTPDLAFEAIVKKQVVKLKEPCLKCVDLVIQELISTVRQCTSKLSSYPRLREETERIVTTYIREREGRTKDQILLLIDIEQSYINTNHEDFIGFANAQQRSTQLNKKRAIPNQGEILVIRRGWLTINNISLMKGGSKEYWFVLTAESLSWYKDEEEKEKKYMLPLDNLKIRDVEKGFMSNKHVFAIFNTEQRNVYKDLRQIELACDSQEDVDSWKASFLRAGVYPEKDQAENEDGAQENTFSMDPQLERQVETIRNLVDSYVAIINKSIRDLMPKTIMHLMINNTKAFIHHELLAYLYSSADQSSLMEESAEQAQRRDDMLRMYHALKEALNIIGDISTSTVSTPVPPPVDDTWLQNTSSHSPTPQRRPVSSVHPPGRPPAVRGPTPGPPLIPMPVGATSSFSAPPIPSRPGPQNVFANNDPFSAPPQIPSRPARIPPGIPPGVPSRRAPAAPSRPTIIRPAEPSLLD
Description: (§2) The plasmid for GST-Amph2-SH3 (muscle Amph2) (Butler et al., 1997) was provided by Pieto DeCamilli, Yale, Connecticut, USA, in pGEX2T vectors. The plasmid was grown in E. coli and the GST-Amph2-SH3 fusion protein was purified on glutathione (GSH)-Sepharose by elution with 10 mM reduced GSH in 20 mM Tris-HCl, pH 7.5, dialysed against the same buffer without GSH and stored at 4° C. Dynamin was purified from sheep brain by extraction from the peripheral membrane fraction of whole brain (Robinson et al., 1993) and affinity purification on GST-Amph2-SH3-sepharose as previously described (Marks and McMahon., 1998), yielding 8 mg protein from 250 g sheep brain. Recombinant dynamin II was expressed in insect cells and was a gift from Dr Sandra Schmid (Scripps, San Diego, Calif.). Recombinant dynamin I lacking the PH domain (dynamin PH, provided by Robin Scaife) was expressed in insect cells using baculoviral infection (Salim et al., 1996).
Dynamin GTPase activity was determined by hydrolysis of [ ? -^32P]GTP by a method modified from that described previously (Robinson et al., 1993). […] Dynamin activity was measured as either basal or phospholipid-stimulated with the addition of 5 μg/ml L-phosphatidylserine. […] After centrifuging for 5 min (13,000 rpm at room temperature), 200 μl of each supernatant was counted in a -counter for the release of ^32Pi from [ ? -^32P]-GTP.

dynamin I = dynamin I (Ovis aries, UniProt A0ACI6NZN1); test: Phospholipid binding and helix assembly (sedimentation assay); settings: 10 or 100 μM, PS liposomes
RalA = molecular target: T2, RalA (Homo sapiens, UniProt P11233); test: [α-32P]-GTP binding to small G protein RalA; settings: data not shown
T2 sequence (P11233 1-206): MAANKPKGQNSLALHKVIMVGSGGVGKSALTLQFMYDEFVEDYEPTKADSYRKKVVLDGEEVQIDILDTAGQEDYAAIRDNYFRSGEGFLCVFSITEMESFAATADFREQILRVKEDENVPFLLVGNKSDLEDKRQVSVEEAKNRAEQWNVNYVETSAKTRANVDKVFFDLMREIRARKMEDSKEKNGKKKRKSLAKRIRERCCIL
Description: as §1

HER14 cells = test: Texas Red-transferrin uptake in HER14 cells; assay type: cell-based; settings: drug added 15 or 60 minutes before Tf-TxR
Description: Transferrin (Tf) uptake was analysed in Swiss 3T3 and HER14 cells based on methods previously described (van der Bliek et al., 1993). Briefly, cells were plated to 60% confluency in DMEM medium plus 10% foetal calf serum after which the cells were incubated overnight (8-10 hours) in DMEM minus foetal calf serum. Texas red-transferrin (Tf-TxR, Molecular Probes, Oregon) was added to a final concentration of 5 μg/ml and the cells incubated at 37° C. for 10 minutes. Cell surface staining was removed by incubating the cells in an ice cold acid wash solution (0.2 M acetic acid +0.5 M NaCl, pH 2.8) for 15 minutes. Cells were immediately fixed with 4% paraformaldehyde for 10 minutes then washed 3 times with PBS. Nuclei were stained using DAPI (Molecular Probes, Oregon). Slides were mounted using DABCO and the fluorescence was monitored using a Leica DMLB bright field microscope and SPOT digital camera.

ΔPH domain dynamin I = test: GTPase assay with recombinant dynamin I lacking the PH domain; assay type: biochemical
Description: as §2
Dynamin GTPase activity was determined by hydrolysis of [ ? -^32P]GTP by a method modified from that described previously (Robinson et al., 1993). Briefly, purified dynamin I or dynamin II (0.2 μg/tube) was incubated in GTPase buffer (10 mM Tris, 10 mM NaCl, 2 mM Mg^2+, 0.05% Tween 80, pH 7.4, 1 μg/ml leupeptin and 0.1 mM PMSF) and a GTP cocktail containing 0.3 mM GTP and 1.3 μCi [ ? -^32P]-GTP in the presence or absence of varying concentrations of inhibitors or DMSO vehicle for 10 min at 30 C. The final assay volume was 40 μl. Dynamin activity was measured as either basal or phospholipid-stimulated with the addition of 5 μg/ml L-phosphatidylserine. The reaction was terminated with 100 μl of GTPase stop buffer (2% formic add, 8% acetic acid, pH 1.9), followed by 600 μl of acid-washed charcoal solution (7% charcoal in acidic solution (w/v)) and 100 μl BSA (5 mg/ml). After centrifuging for 5 min (13,000 rpm at room temperature), 200 μl of each supernatant was counted in a -counter for the release of ^32Pi from [ ? -^32P]-GTP. […]

Arf2 = test: [α-32P]-GTP binding to small G protein Arf2; settings: data not shown
Description: as §1

Sequence of dynamin I (A0ACI6NZN1 entry or part of it): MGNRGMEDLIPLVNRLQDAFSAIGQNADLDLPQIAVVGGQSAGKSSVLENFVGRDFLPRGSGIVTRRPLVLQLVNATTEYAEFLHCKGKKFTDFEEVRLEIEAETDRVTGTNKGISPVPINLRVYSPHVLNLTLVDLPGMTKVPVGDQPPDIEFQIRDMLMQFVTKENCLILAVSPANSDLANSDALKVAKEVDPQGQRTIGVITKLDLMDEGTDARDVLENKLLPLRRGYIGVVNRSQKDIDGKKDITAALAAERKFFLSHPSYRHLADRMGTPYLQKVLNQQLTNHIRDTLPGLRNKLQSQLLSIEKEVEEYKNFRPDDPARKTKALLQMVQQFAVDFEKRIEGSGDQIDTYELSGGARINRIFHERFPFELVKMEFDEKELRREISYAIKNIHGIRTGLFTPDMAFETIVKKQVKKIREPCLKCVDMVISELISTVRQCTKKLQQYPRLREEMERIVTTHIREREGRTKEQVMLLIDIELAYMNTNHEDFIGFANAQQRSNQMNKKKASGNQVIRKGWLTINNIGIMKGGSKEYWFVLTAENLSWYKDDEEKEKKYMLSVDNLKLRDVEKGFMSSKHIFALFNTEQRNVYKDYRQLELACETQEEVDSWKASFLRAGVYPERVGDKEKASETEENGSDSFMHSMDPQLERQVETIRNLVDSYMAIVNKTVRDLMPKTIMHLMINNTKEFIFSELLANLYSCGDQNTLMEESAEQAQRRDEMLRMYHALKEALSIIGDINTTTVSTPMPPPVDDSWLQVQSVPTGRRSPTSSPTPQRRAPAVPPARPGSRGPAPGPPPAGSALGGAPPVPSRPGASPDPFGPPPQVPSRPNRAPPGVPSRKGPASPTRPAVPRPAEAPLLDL

How did the “effect on [α-32P]-GTP binding to Ras” value (Ras) turn out when `N#C/C(=C\c1ccc(O)c(O)c1)C(=O)NCCCNC(=O)/C(C#N)=C/c1ccc(O)c(O)c1` [bis-tyrphostin] was run?
The value was “neither drug affected”.

What about the pIC50 (dynamin II) of the same compound?
Its pIC50 is 6.30.

And the “phospholipid binding and dynamin helix assembly” value (dynamin I)?
The value was “completely unaffected; also recorded: does not block dynamin binding to lipid”.

What about the “effect on [α-32P]-GTP binding to RalA” value (RalA) of the same compound?
Its value is “neither drug affected”.

What about the “internalisation of texas-red labelled transferrin into HER14 cells” value (HER14 cells) of the same compound?
The value was “very large decrease in transferrin staining; also recorded: inhibited”.

What about the “ability to inhibit GTPase activity of dynamin I lacking the PH domain” value (ΔPH domain dynamin I) of the same compound?
The value was “still inhibits”.

What about the “inhibition of ΔPH domain dynamin I GTP hydrolysis” value (ΔPH domain dynamin I; at 10 μM) of the same compound?
Its value is “more than 50%”.

What about the “effect on [α-32P]-GTP binding to Arf2” value (Arf2) of the same compound?
The value was “neither drug affected”.
